# Measurements taken from patent US20180193336A1, “SPRAY DRY FORMULATIONS” (Pulmokine, Inc., priority 2013, published 2018).
# Marks after values point to notes of the source that are not given here.
# How the values were obtained:
# rat MCT+PN model = experiment: Two-chamber plethysmography, PK10453 in rat MCT+PN model; type: in vivo; settings: for MV (minute ventilation) / PEF (peak expiratory flow) / PIF (peak inspiratory flow) / SRaw (airway resistance) / TV (tidal volume) / f (breathing frequency): MCT+PN, mean
# Method: Plethysmography was performed with an EMKA dual chamber plethysmograph and IOX software. Parameters measured included breathing frequency, tidal volume, minute ventilation, peak inspiratory and expiratory flow, and airway resistance (SRaw). Animals were acclimatized to the plethysmograph for three days prior to first data acquisition. Measurements were made prior to the first dose of drug and at the end of the study.
# [1] = Aerosol particle size of nebulized drug, Anderson cascade impactor; type: physicochemical; settings: 20 mg/ml in 1M tosylic acid, PARI nebulizer
# Method: PK10453 (Structure 2) was dissolved at a concentration of 20 mg/ml in 1M tosylic acid. Nebulization was performed with a PARI Nebulizer with an air pressure of 12.5 psi. The aerosol droplets were neutralized by ammonia vapor that was passed into the aerosol air stream. The particles were then dried by flowing through an annular ring of silica bead cartridges prior to reaching the exposure chamber. The 6-port exposure chamber was a nose-only exposure system custom designed and built by Powerscope Inc. (Minneapolis, Minn.). The vacuum flow rate at each port was separately controlled by a flow meter. The aerosol particle size was measured at the exit port of the drying column with an Anderson (Mark II) cascade impactor. The mass median aerodynamic diameter (MMAD) was 2 μm and the associated geometric standard deviation (GSD) was 1.6.
smiles,measurement,setting,value
"COc1cc(-c2cncc(N[C@@H](C)c3cccc(NC(=O)c4cncc(C)c4)c3)n2)ccc1O [PK10453, (S)—N-(3-(1-((6-(4-hydroxy-β-methoxyphenyl)pyrazin-2yl)amino)ethyl)phenyl)-5-methylnicotinamide]",MV (minute ventilation),"rat MCT+PN model; D4, Day 1",223.24 mL/min
same,PEF (peak expiratory flow),"rat MCT+PN model; D4, Day 1",11.04
same,PIF (peak inspiratory flow),"rat MCT+PN model; D4, Day 1",9.82
same,SRaw (airway resistance),"rat MCT+PN model; D4, Day 1",39.73
same,TV (tidal volume),"rat MCT+PN model; D4, Day 1",1.00 mL
same,f (breathing frequency),"rat MCT+PN model; D4, Day 1",224.68 breaths per minute
same,MV (minute ventilation),"rat MCT+PN model; D4, Day 15",176.12§ mL/min
same,PEF (peak expiratory flow),"rat MCT+PN model; D4, Day 15",9.33*
same,PIF (peak inspiratory flow),"rat MCT+PN model; D4, Day 15",7.82*
same,SRaw (airway resistance),"rat MCT+PN model; D4, Day 15",33.09
same,TV (tidal volume),"rat MCT+PN model; D4, Day 15",0.85 mL
same,f (breathing frequency),"rat MCT+PN model; D4, Day 15",217.12 breaths per minute
same,MV (minute ventilation),"rat MCT+PN model; D8, Day 1",174.68 mL/min
same,PEF (peak expiratory flow),"rat MCT+PN model; D8, Day 1",9.43
same,PIF (peak inspiratory flow),"rat MCT+PN model; D8, Day 1",8.54
same,SRaw (airway resistance),"rat MCT+PN model; D8, Day 1",36.01
same,TV (tidal volume),"rat MCT+PN model; D8, Day 1",0.74 mL
same,f (breathing frequency),"rat MCT+PN model; D8, Day 1",259.13 breaths per minute
same,MV (minute ventilation),"rat MCT+PN model; D8, Day 15",128.49 mL/min
same,PEF (peak expiratory flow),"rat MCT+PN model; D8, Day 15",6.64
same,PIF (peak inspiratory flow),"rat MCT+PN model; D8, Day 15",6.06
same,SRaw (airway resistance),"rat MCT+PN model; D8, Day 15",49.26
same,TV (tidal volume),"rat MCT+PN model; D8, Day 15",0.63 mL
same,f (breathing frequency),"rat MCT+PN model; D8, Day 15",232.11 breaths per minute
same,effect on lung function,"rat MCT+PN model; inhaled, 2-wk course",did not adversely affect lung function
same,mass median aerodynamic diameter (MMAD) of dried nebulized aerosol,[1],2 μm
